Results published in PubChem BioAssay (NCI).
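All cell lines were grown in 96-well plates and treated with compound for 48 hours. TGI: total growth inhibition.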

Columns and labels:
Test in all cases: NCI anticancer screen, dose series, 48 h
T-47D breast = system: T-47D breast
M14 melanoma = system: M14 melanoma
CAKI-1 renal = system: CAKI-1 renal
OVCAR-8 ovarian = system: OVCAR-8 ovarian
MDA-MB-435 = system: MDA-MB-435
TK-10 renal = system: TK-10 renal
NCI-H460 lung = system: NCI-H460 lung
RPMI-8226 leukemia = system: RPMI-8226 leukemia
SF-539 CNS = system: SF-539 CNS
MDA-MB-231 breast = system: MDA-MB-231 breast
HS 578T breast = system: HS 578T breast
RXF 393 renal = system: RXF 393 renal
CCRF-CEM leukemia = system: CCRF-CEM leukemia

Row | Structure (SMILES) | TGI (T-47D breast) | TGI (M14 melanoma) | TGI (CAKI-1 renal) | TGI (OVCAR-8 ovarian) | TGI (MDA-MB-435) | TGI (TK-10 renal) | TGI (NCI-H460 lung) | TGI (RPMI-8226 leukemia) | TGI (SF-539 CNS) | TGI (MDA-MB-231 breast) | TGI (HS 578T breast) | TGI (RXF 393 renal) | TGI (CCRF-CEM leukemia)
1 | CN(C)/C=C/c1nnnn1-c1ccc(I)cc1 | 44 µM | 40.6 µM | 50.6 µM | 72.2 µM | 60.7 µM | 87.1 µM | > 100 µM | 46.5 µM | 42.5 µM | 40.9 µM | 45.2 µM | 59.6 µM | 25.9 µM
2 | CC(C)CCCC(C)[C@H]1CC[C@H]2[C@@H]3CC[C@H]4C[C@@H](CCC=C(c5cc(Cl)c(O)c(C(=O)O)c5)c5cc(Cl)c(O)c(C(=O)O)c5)CC[C@]4(C)[C@H]3CC[C@]12C (some centres not stated) (tested in a mixture with another compound) | > 50 µM | > 50 µM | > 50 µM | > 50 µM | > 50 µM | > 50 µM | > 50 µM | > 50 µM | > 50 µM | > 50 µM | > 50 µM | > 50 µM | > 50 µM
3 | CC(C)c1ccc2[nH]c(O)c(C3=Nc4ccccc4C3=O)c2c1 | 17.2 µM | > 100 µM | > 100 µM | > 100 µM | > 100 µM | 54.2 µM | > 100 µM | > 100 µM |  | 48 µM | 85.3 µM | 6.71 µM | > 100 µM
4 | CN1CCN(CCCCN2c3ccccc3Sc3ccc(N=[N+]=[N-])cc32)CC1 | 36.2 µM | 3.83 µM | 22.1 µM | 29.8 µM | 3.94 µM | 27.9 µM | 17.4 µM | 5.61 µM | 20.4 µM | 15 µM | 30.7 µM | 19.1 µM | 7.75 µM
5 | CC(=O)N1N=C(c2c(O)ccc3ccccc23)CC1c1ccc(Cl)cc1 (configuration not stated) | > 100 µM | 33.5 µM | > 100 µM | > 100 µM | 51.9 µM | > 100 µM | 48.1 µM | 45.8 µM | 37.4 µM | 43.5 µM | 45.1 µM | 42.9 µM | 25.7 µM
6 | CCCCCCCCCC1CC(=O)NCC(=O)NC(C(C)C)C(=O)NC(CC(C)C)C(=O)NC(C)C(=O)NC(C(C)C)C(=O)O1 (configuration not stated) | > 100 µM | > 100 µM | > 100 µM | 18.2 µM | 49.8 µM | 68.9 µM | 23.6 µM | > 86.8 µM | 43.4 µM | > 38.6 µM | 53 µM | > 94.9 µM | > 56.4 µM
7 | Clc1ccc(-c2nnc(C34CC5CC(CC(C5)C3)C4)o2)cc1 | > 100 µM | > 100 µM | > 100 µM | > 100 µM | > 100 µM |  | > 100 µM | > 100 µM | > 100 µM | > 100 µM | > 100 µM | > 100 µM | > 100 µM
8 | C1=NCCNCCN=Cc2ccccc2OCc2cccc(n2)COc2ccccc21 | > 100 µM | > 46.6 µM | > 95.6 µM | 37.5 µM | > 68.7 µM | > 75.6 µM | > 100 µM | > 54.1 µM | 11.1 µM | > 95.5 µM | > 100 µM | > 100 µM | > 34.3 µM
9 | O=C(OC(/C=C/c1ccccc1)P1(=O)N(Cc2ccccc2)[C@@H]2CCCC[C@H]2N1Cc1ccccc1)c1ccccc1 (some centres not stated) | > 100 µM | > 100 µM | > 100 µM | > 29.8 µM | > 100 µM | > 100 µM | > 27.3 µM | 6.53 µM | > 100 µM | 30.3 µM | > 100 µM | > 100 µM | 7.88 µM
10 | O=[N+]([O-])/C=C/COCc1cc2c(cc1Br)OCO2 | 41.6 µM | 29.9 µM | 35.6 µM | > 100 µM | 27.1 µM | 34.8 µM | > 100 µM | > 100 µM | 63.6 µM | 33 µM | 50.3 µM | 30.9 µM | 11.5 µM
11 | O=[N+]([O-])c1ccc(NC(=S)Nc2ccccn2)cc1 | > 100 µM | > 100 µM | 18.9 µM | > 100 µM | > 100 µM | > 93.2 µM | > 100 µM | > 100 µM | 55.5 µM | > 100 µM | 63 µM | 17.8 µM | > 100 µM
12 | Cc1ccc(/C(O)=C/c2nc3ccccc3[nH]c2=O)c(C)c1 | > 69.7 µM | > 96 µM | 18.3 µM | 25.4 µM | > 100 µM | 21.1 µM | 46.8 µM | > 100 µM | 31.6 µM | > 46.6 µM | 59.2 µM | > 49.2 µM | > 100 µM
13 | C/C1=C\CC/C(C)=C/C=C(/C(C)C)CC/C(C(=O)O)=C/CC1 | 75.6 µM | > 100 µM | > 100 µM | > 100 µM | > 100 µM | > 100 µM | > 100 µM | 62 µM | > 100 µM | > 100 µM | > 100 µM | > 100 µM | > 100 µM
14 | CN(C)c1ccc(N=Nc2cccc3ncccc23)cc1 | > 100 µM | > 100 µM | > 100 µM | > 100 µM | > 79.8 µM | > 100 µM | > 100 µM | > 68.1 µM | > 100 µM | > 100 µM | > 100 µM | > 100 µM | > 100 µM
15 | COC(=O)/C=C(/C(=O)OC)c1c(C)cc2c(C)cc(C)cc(C)c1-2 | > 100 µM | 35.1 µM | > 100 µM | > 86.6 µM | > 30.5 µM | > 83.3 µM | > 69.9 µM | > 100 µM | 26.7 µM | 15.3 µM | 51.1 µM | 49.2 µM | > 100 µM
16 | [O-]c1c[n+](CC[n+]2cc([O-])on2)no1 | > 100 µM | > 100 µM | > 100 µM | > 100 µM | > 100 µM | > 100 µM | > 100 µM | > 100 µM |  | > 100 µM | > 100 µM | > 100 µM | > 100 µM
17 | CO/N=C(/C(=O)OC)c1ccccc1COc1cccc(C(F)(F)F)c1 | 64.7 µM | > 100 µM | 56.1 µM |  | > 100 µM | 55.4 µM | > 100 µM | 25.4 µM | > 100 µM | > 100 µM | > 100 µM | 98 µM | 65.1 µM
